Key:
HeLa-MaTu-ADR cells = test: Proliferation assay (Method 3), HeLa-MaTu-ADR; type: cell-based; details: 96 h; multidrug-resistant human cervical carcinoma, 4 days, crystal violet; read-out: Inhibition of HeLa-MaTu-ADR cell proliferation IC50
Protocol: (§1) Cultivated tumour cells (HeLa, human cervical tumour cells, ATCC CCL-2; NCI-H460, human non-small cell lung carcinoma cells, ATCC HTB-177; A2780, human ovarian carcinoma cells, ECACC #93112519; DU 145, hormone-independent human prostate carcinoma cells, ATCC HTB-81; HeLa-MaTu-ADR, multidrug-resistant human cervical carcinoma cells, EPO-GmbH Berlin; Caco-2, human colorectal carcinoma cells, ATCC HTB-37; B16F10, mouse melanoma cells, ATCC CRL-6475) were plated at a density of 5,000 cells/well (DU145, HeLa-MaTu-ADR), 3,000 cells/well (NCI-H460, HeLa), 2,500 cells/well (A2780), 1,500 cells/well (Caco-2), or 1,000 cells/well (B16F10) in a 96-well multititer plate in 200 μL of their respective growth medium supplemented 10% fetal calf serum. After 24 hours, the cells of one plate (zero-point plate) were stained with crystal violet (see below), while the medium of the other plates was replaced by fresh culture medium (200 μl), to which the test substances were added in various concentrations (0 μM, as well as in the range of 0.001-10 μM; the final concentration of the solvent dimethyl sulfoxide was 0.5%). The cells were incubated for 4 days in the presence of test substances. Cell proliferation was determined by staining the cells with crystal violet: the cells were fixed by adding 20 μl/measuring point of an 11% glutaric aldehyde solution for 15 minutes at room temperature. After three washing cycles of the fixed cells with water, the plates were dried at room temperature. The cells were stained by adding 100 μl/measuring point of a 0.1% crystal violet solution (pH 3.0). After three washing cycles of the stained cells with water, the plates were dried at room temperature. The dye was dissolved by adding 100 μl/measuring point of a 10% acetic acid solution. The extinction was determined by photometry at a wavelength of 595 nm. The change of cell number, in percent, was calculated by normalization of the measured values to the extinction values of the zero-point plate (=0%) and the extinction of the untreated (0 μm) cells (=100%). The IC50 values (inhibitory concentration at 50% of maximal effect) were determined by means of a 4 parameter fit.

CDK9/CycT1 = target: T1, CDK9/CycT1 (Homo sapiens, UniProt P50750); test: CDK9/CycT1 kinase assay (Method 1a, TR-FRET, 10 μM ATP); type: biochemical; details: for IC50: Method 1a, 10 μM ATP; for Selectivity CDK9/CDK2: according to Methods 1a and 2a (ratio of CDK2 IC50 to CDK9 IC50)
T1 construct: Recombinant full-length His-tagged human CDK9 and CycT1; His; purchased Invitrogen PV4131; host or cells: insect cells
T1 sequence (P50750 whole entry): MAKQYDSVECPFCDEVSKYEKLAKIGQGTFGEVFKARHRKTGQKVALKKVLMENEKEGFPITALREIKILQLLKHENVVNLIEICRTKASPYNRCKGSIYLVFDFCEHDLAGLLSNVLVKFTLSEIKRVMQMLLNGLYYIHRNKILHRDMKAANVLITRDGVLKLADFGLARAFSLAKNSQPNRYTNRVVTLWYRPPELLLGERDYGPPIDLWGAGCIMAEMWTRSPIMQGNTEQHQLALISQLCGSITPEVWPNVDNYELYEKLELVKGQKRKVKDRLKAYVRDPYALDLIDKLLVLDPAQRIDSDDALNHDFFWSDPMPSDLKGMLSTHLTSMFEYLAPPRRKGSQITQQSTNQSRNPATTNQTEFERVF
T1 sequence (O60563 whole entry partner): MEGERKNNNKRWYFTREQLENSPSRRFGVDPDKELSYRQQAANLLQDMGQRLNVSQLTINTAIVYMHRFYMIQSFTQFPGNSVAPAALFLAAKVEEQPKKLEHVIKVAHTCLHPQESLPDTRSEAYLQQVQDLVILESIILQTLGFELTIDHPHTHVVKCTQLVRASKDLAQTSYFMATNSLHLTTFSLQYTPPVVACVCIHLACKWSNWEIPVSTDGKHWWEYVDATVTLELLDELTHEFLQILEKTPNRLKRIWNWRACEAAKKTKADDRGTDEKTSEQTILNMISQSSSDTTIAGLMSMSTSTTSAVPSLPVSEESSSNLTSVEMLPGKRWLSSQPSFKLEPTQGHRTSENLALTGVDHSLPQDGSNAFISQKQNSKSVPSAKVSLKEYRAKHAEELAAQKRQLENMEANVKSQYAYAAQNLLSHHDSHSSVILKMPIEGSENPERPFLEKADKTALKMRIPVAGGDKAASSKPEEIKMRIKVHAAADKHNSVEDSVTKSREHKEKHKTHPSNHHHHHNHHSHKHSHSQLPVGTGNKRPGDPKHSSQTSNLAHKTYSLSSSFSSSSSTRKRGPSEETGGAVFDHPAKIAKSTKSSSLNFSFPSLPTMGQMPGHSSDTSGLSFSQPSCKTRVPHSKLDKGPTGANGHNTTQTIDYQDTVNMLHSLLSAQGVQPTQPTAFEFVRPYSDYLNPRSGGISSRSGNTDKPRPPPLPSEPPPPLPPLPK
Text: 1a. CDK9/CycT1 Kinase Assay:
CDK9/CycT1-inhibitory activity of compounds of the present invention was quantified employing the CDK9/CycT1 TR-FRET assay as described in the following paragraphs:
Recombinant full-length His-tagged human CDK9 and CycT1, expressed in insect cells and purified by Ni-NTA affinity chromatography, were purchased from Invitrogen (Cat. No PV4131). As substrate for the kinase reaction biotinylated peptide biotin-Ttds-YISPLKSPYKISEG (C-terminus in amid form) was used which can be purchased e.g. form the company JERINI Peptide Technologies (Berlin, Germany). For the assay 50 n1 of a 100 fold concentrated solution of the test compound in DMSO was pipetted into a black low volume 384 well microtiter plate (Greiner Bio-One, Frickenhausen, Germany), 2 μl of a solution of CDK9/CycT1 in aqueous assay buffer [50 mM Tris/HCl pH 8.0, 10 mM MgCl2, 1.0 mM dithiothreitol, 0.1 mM sodium ortho-vanadate, 0.01% (v/v) Nonidet-P40 (Sigma)] were added and the mixture was incubated for 15 min at 22° C. to allow pre-binding of the test compounds to the enzyme before the start of the kinase reaction. Then the kinase reaction was started by the addition of 3 μl of a solution of adenosine-tri-phosphate (ATP, 16.7 μM=>final conc. in the 5 μl assay volume is 10 μM) and substrate (1.67 μM=>final conc. in the 5 μl assay volume is 1 μM) in assay buffer and the resulting mixture was incubated for a reaction time of 25 min at 22° C. The concentration of CDK9/CycT1 was adjusted depending of the activity of the enzyme lot and was chosen appropriate to have the assay in the linear range, typical concentrations were in the range of 1 μg/mL. The reaction was stopped by the addition of 5 μl of a solution of TR-FRET detection reagents (0.2 μM streptavidine-XL665 [Cisbio Bioassays, Codolet, France] and 1 nM anti-RB(pSer807/pSer811)-antibody from BD Pharmingen [#558389] and 1.2 nM LANCE EU-W1024 labeled anti-mouse IgG antibody [Perkin-Elmer, product no. AD0077]) in an aqueous EDTA-solution (100 mM EDTA, 0.2% (w/v) bovine serum albumin in 100 mM HEPES/NaOH pH 7.0).
The resulting mixture was incubated 1 h at 22° C. to allow the formation of complex between the phosphorylated biotinylated peptide and the detection reagents. Subsequently the amount of phosphorylated substrate was evaluated by measurement of the resonance energy transfer from the Eu-chelate to the streptavidine-XL. Therefore, the fluorescence emissions at 620 nm and 665 nm after excitation at 350 nm was measured in a HTRF reader, e.g. a Rubystar (BMG Labtechnologies, Offenburg, Germany) or a Viewlux (Perkin-Elmer). The ratio of the emissions at 665 nm and at […] was taken as the measure for the amount of phosphorylated substrate. The data were normalised (enzyme reaction without inhibitor=0% inhibition, all other assay components but no enzyme=100% inhibition).

NCI-H460 cells = test: Proliferation assay (Method 3), NCI-H460; type: cell-based; details: NCI-H460, 96 h; human non-small cell lung carcinoma, 4 days, crystal violet; read-out: Inhibition of NCI-H460 cell proliferation IC50
Protocol: as §1

DU145 cells = test: Proliferation assay (Method 3), DU145; type: cell-based; details: DU-145, 96 h; hormone-independent human prostate carcinoma, 4 days, crystal violet; read-out: Inhibition of DU145 cell proliferation IC50
Protocol: as §1

B16F10 cells = test: Proliferation assay (Method 3), B16F10; type: cell-based; details: B16-F10, 96 h; mouse melanoma, 4 days, crystal violet; read-out: Inhibition of B16F10 cell proliferation IC50
Protocol: as §1

Row | Structure (SMILES) | IC50 (HeLa-MaTu-ADR cells) [nM] | IC50 (CDK9/CycT1) [nM] | Selectivity CDK9/CDK2 (CDK9/CycT1) | IC50 (NCI-H460 cells) [nM] | IC50 (DU145 cells) [nM] | IC50 (B16F10 cells) [nM]
1 | CS(=O)(=O)Cc1cc(Nc2cc(-c3ccc(F)c4ccoc34)c(F)cn2)nc(C(F)(F)F)c1 [Example 4, 5-Fluoro-4-(4-fluoro-1-benzofuran-7-yl)-N-{4-[(methylsulfonyl)methyl]-6-(trifluoromethyl)pyridin-2-yl}pyridin-2-amine] | 23 | – | – | 33 | 30 | 31
2 | Cc1cc(CS(C)(=O)=O)cc(Nc2cc(-c3ccc(F)c4ccoc34)c(F)cn2)n1 [Example 3, 5-Fluoro-4-(4-fluoro-1-benzofuran-7-yl)-N-{6-methyl-4-[(methylsulfonyl)methyl]pyridin-2-yl}pyridin-2-amine] | 18 | – | – | 19 | 24 | 32

Continued by falling IC50 (HeLa-MaTu-ADR cells), values first:

Row | IC50 (HeLa-MaTu-ADR cells) [nM] | IC50 (CDK9/CycT1) [nM] | Selectivity CDK9/CDK2 (CDK9/CycT1) | IC50 (NCI-H460 cells) [nM] | IC50 (DU145 cells) [nM] | IC50 (B16F10 cells) [nM] | Structure (SMILES)
3 | 68 | 4 | 17 | 91 | 58 | 120 | CS(=O)(=O)Cc1ccnc(Nc2cc(-c3cccc4ccoc34)c(F)cn2)c1 [Example 5, 4-(1-Benzofuran-7-yl)-5-fluoro-N-{4-[(methylsulfonyl)methyl]pyridin-2-yl}pyridin-2-amine]
4 | 36 | 3 | 29 | 37 | 34 | 70 | CS(=O)(=O)Cc1ccnc(Nc2cc(-c3ccc(F)c4ccoc34)c(F)cn2)c1 [Example 1, 5-Fluoro-4-(4-fluoro-1-benzofuran-7-yl)-N-{4-[(methylsulfonyl)methyl]pyridin-2-yl}pyridin-2-amine]
5 | 24 | 4 | 18 | 48 | 36 | 59 | CS(=O)(=O)Cc1cc(F)nc(Nc2cc(-c3ccc(F)c4ccoc34)c(F)cn2)c1 [Example 2, 5-Fluoro-4-(4-fluoro-1-benzofuran-7-yl)-N-{6-fluoro-4-[(methylsulfonyl)methyl]pyridin-2-yl}pyridin-2-amine]
